Experimental data from BigSolDB 2.1.

## CN(C)CCC=C1c2ccccc2CCc2ccccc21.Cl
In 2-butanone, 283.23 K
  solubility (mole fraction): 0.00254
In 2-butanone, 288.16 K
  solubility (mole fraction): 0.00275
In 2-butanone, 293.2 K
  solubility (mole fraction): 0.00304
In 2-butanone, 298.15 K
  solubility (mole fraction): 0.00338
In 2-butanone, 303.16 K
  solubility (mole fraction): 0.00375
In 2-butanone, 308.2 K
  solubility (mole fraction): 0.00415
In 2-butanone, 313.15 K
  solubility (mole fraction): 0.00462
In 2-butanone, 318.67 K
  solubility (mole fraction): 0.00518
In 2-butanone, 323.35 K
  solubility (mole fraction): 0.00584
In DMF, 283.86 K
  solubility (mole fraction): 0.03
In DMF, 288.15 K
  solubility (mole fraction): 0.032
In DMF, 293.05 K
  solubility (mole fraction): 0.0353
In DMF, 298.04 K
  solubility (mole fraction): 0.0387
In DMF, 303.05 K
  solubility (mole fraction): 0.0425
In DMF, 308.17 K
  solubility (mole fraction): 0.047
In DMF, 313.3 K
  solubility (mole fraction): 0.0519
In DMF, 318.16 K
  solubility (mole fraction): 0.0571
In DMF, 323 K
  solubility (mole fraction): 0.0633
In THF, 283.09 K
  solubility (mole fraction): 0.000628
In THF, 288.07 K
  solubility (mole fraction): 0.000755
In THF, 293.82 K
  solubility (mole fraction): 0.000884
In THF, 298.23 K
  solubility (mole fraction): 0.00101
In THF, 303.1 K
  solubility (mole fraction): 0.00116
In THF, 309.04 K
  solubility (mole fraction): 0.00135
In THF, 313.13 K
  solubility (mole fraction): 0.00152
In THF, 317.96 K
  solubility (mole fraction): 0.00174
In THF, 323.16 K
  solubility (mole fraction): 0.00196
In acetone, 283.17 K
  solubility (mole fraction): 0.00226
In acetone, 288.13 K
  solubility (mole fraction): 0.00252
In acetone, 293.2 K
  solubility (mole fraction): 0.00282
In acetone, 298.07 K
  solubility (mole fraction): 0.00316
In acetone, 303.21 K
  solubility (mole fraction): 0.00354
In acetone, 308.19 K
  solubility (mole fraction): 0.00398
In acetone, 313.2 K
  solubility (mole fraction): 0.00448
In acetone, 318.2 K
  solubility (mole fraction): 0.00503
In acetone, 323.1 K
  solubility (mole fraction): 0.00565
In acetonitrile, 283.19 K
  solubility (mole fraction): 0.00773
In acetonitrile, 288.13 K
  solubility (mole fraction): 0.0089
In acetonitrile, 293.2 K
  solubility (mole fraction): 0.0102
In acetonitrile, 298.19 K
  solubility (mole fraction): 0.0118
In acetonitrile, 303.16 K
  solubility (mole fraction): 0.0136
In acetonitrile, 308.13 K
  solubility (mole fraction): 0.0157
In acetonitrile, 313.17 K
  solubility (mole fraction): 0.0183
In acetonitrile, 318.13 K
  solubility (mole fraction): 0.0212
In acetonitrile, 323.17 K
  solubility (mole fraction): 0.0249
In cyclohexanone, 282.93 K
  solubility (mole fraction): 0.00512
In cyclohexanone, 288.07 K
  solubility (mole fraction): 0.00585
In cyclohexanone, 293.11 K
  solubility (mole fraction): 0.0066
In cyclohexanone, 298.43 K
  solubility (mole fraction): 0.00743
In cyclohexanone, 303.09 K
  solubility (mole fraction): 0.00829
In cyclohexanone, 308.26 K
  solubility (mole fraction): 0.00952
In cyclohexanone, 313.27 K
  solubility (mole fraction): 0.011
In cyclohexanone, 319.7 K
  solubility (mole fraction): 0.0128
In cyclohexanone, 323.1 K
  solubility (mole fraction): 0.0144
In isobutanol, 283.25 K
  solubility (mole fraction): 0.0281
In isopentanol, 283.17 K
  solubility (mole fraction): 0.0122
In isopentanol, 288.19 K
  solubility (mole fraction): 0.0159
In isopentanol, 293.17 K
  solubility (mole fraction): 0.0202
In isopentanol, 298.2 K
  solubility (mole fraction): 0.0256
In isopentanol, 303.23 K
  solubility (mole fraction): 0.0326
In isopentanol, 308.17 K
  solubility (mole fraction): 0.0416
In isopentanol, 313.15 K
  solubility (mole fraction): 0.0532
In isopentanol, 318.2 K
  solubility (mole fraction): 0.0671
In isopentanol, 323.17 K
  solubility (mole fraction): 0.0827
In isopropanol, 283.16 K
  solubility (mole fraction): 0.00585
In isopropanol, 288.35 K
  solubility (mole fraction): 0.00786
In isopropanol, 293.16 K
  solubility (mole fraction): 0.0102
In isopropanol, 298.16 K
  solubility (mole fraction): 0.0133
In isopropanol, 303.05 K
  solubility (mole fraction): 0.0177
In isopropanol, 308.06 K
  solubility (mole fraction): 0.0239
In isopropanol, 313.54 K
  solubility (mole fraction): 0.034
In isopropanol, 318.16 K
  solubility (mole fraction): 0.0456
In isopropanol, 323.3 K
  solubility (mole fraction): 0.0592
In n-butanol, 283.1 K
  solubility (mole fraction): 0.0203
In n-butanol, 288.2 K
  solubility (mole fraction): 0.0261
In n-butanol, 293.13 K
  solubility (mole fraction): 0.0333
In n-butanol, 298.15 K
  solubility (mole fraction): 0.042
In n-butanol, 303.4 K
  solubility (mole fraction): 0.0537
In n-butanol, 308.2 K
  solubility (mole fraction): 0.0662
In n-butanol, 313.15 K
  solubility (mole fraction): 0.0803
In n-butanol, 318.16 K
  solubility (mole fraction): 0.0953
In n-butanol, 323.23 K
  solubility (mole fraction): 0.112
In n-pentanol, 288.23 K
  solubility (mole fraction): 0.0366
In n-pentanol, 293.21 K
  solubility (mole fraction): 0.0456
In n-pentanol, 298.07 K
  solubility (mole fraction): 0.0562
In n-pentanol, 303.07 K
  solubility (mole fraction): 0.0701
In n-pentanol, 308.2 K
  solubility (mole fraction): 0.0855
In n-pentanol, 313.16 K
  solubility (mole fraction): 0.1
In n-pentanol, 318.07 K
  solubility (mole fraction): 0.117
In n-pentanol, 323.07 K
  solubility (mole fraction): 0.133
In n-propanol, 283.17 K
  solubility (mole fraction): 0.0266
In n-propanol, 288.17 K
  solubility (mole fraction): 0.0349
In n-propanol, 293.16 K
  solubility (mole fraction): 0.0442
In n-propanol, 298.1 K
  solubility (mole fraction): 0.0557
In n-propanol, 303.07 K
  solubility (mole fraction): 0.0691
In n-propanol, 308.24 K
  solubility (mole fraction): 0.0851
In n-propanol, 313.16 K
  solubility (mole fraction): 0.1
In n-propanol, 318.07 K
  solubility (mole fraction): 0.116
In n-propanol, 323.2 K
  solubility (mole fraction): 0.13
In sec-butanol, 283.2 K
  solubility (mole fraction): 0.00725
In sec-butanol, 288.2 K
  solubility (mole fraction): 0.00934
In sec-butanol, 293.21 K
  solubility (mole fraction): 0.0121
In sec-butanol, 298.1 K
  solubility (mole fraction): 0.0156
In sec-butanol, 303.17 K
  solubility (mole fraction): 0.0207
In sec-butanol, 308.13 K
  solubility (mole fraction): 0.0278
In sec-butanol, 313.2 K
  solubility (mole fraction): 0.0367
In sec-butanol, 318.17 K
  solubility (mole fraction): 0.0483
In sec-butanol, 323.2 K
  solubility (mole fraction): 0.0637
